The results in this text go back to patent EP0026410A1, “Combinations of active ingredients, their preparation and use, as well as pharmaceutical preparations” (F. HOFFMANN-LA ROCHE & CO. Aktiengesellschaft, priority 1979, dated 1981).

In brackets after ≈: the same amount, converted by molar mass. Read-outs that look alike come from different tables or passages of the source.

In one experiment the test system is Proteus vulgaris. Kind of experiment: In vitro M.I.C. of Nocardicin A, peptide and mixtures against Proteus vulgaris. Type of experiment: cell-based.
A further experiment has as its system P. morganii. The experiment is described as follows: In vitro M.I.C. of Nocardicin A, peptide and mixtures against Proteus species. It is filed as cell-based. To be noted: Morganella morganii; P. morganii Stamm 501041; substance alone.
Experiment [1] has as its system Pseudomonas aeruginosa. Kind of experiment: In vitro M.I.C. of Nocardicin A, peptide and their mixtures against Pseudomonas aeruginosa strains. Type of experiment: cell-based.
The test system of a further experiment is P. rettgeri. The experiment is described as follows: In vitro M.I.C. of Nocardicin A, peptide and mixtures against Proteus species. It is filed as cell-based. The note with it: Providencia rettgeri; P. rettgeri Stamm 503010; substance alone.
The test system of a further experiment is Ps. aeruginosa. The experiment is described as follows: In vivo activity in Pseudomonas septicaemia of mice. The arrangement: species or system Mäusen. The note with it: sc, 5 h. An excerpt: Die in vivo Aktivitäten der erfindungsgemässen Kombinationen wurden mittels Pseudomonas-Septikämien an Mäusen getestet, wobei die Verabreichung eine Stunde, 3 Stunden -und 5 Stunden nach intraperitonealer Infektion erfolgte. Die Ergebnisse, die mit (1R)-1-(L-Norvalylamino)-ethylphosphonsäure und Nocardicin A erreicht wurden, sind in der folgenden Tabelle VI zusammengefasst.

The next experiment concerns Serratia marcescens. Kind of experiment: In vitro M.I.C. of Nocardicin A, peptide and mixtures against Serratia marcescens. Type of experiment: cell-based.
A further experiment deals with P. mirabilis. Kind of experiment: In vitro M.I.C. of Nocardicin A, peptide and mixtures against Proteus species. Type of experiment: cell-based.
For experiment [2], the system named is Pseudomonas aeruginosa. The experiment is described as follows: Microtiter checkerboard method, M.I.C. after 18 h incubation. Type of experiment: cell-based. To be noted: for MIC: Pseudomonas aeruginosa. The method, then: Die in vitro Aktivität der erfindungsgemässen Kombinationen kann auch nach der Mikrotiter-Schachbrett-Methode gezeigt werden. Bei dieser Methode werden Filter-sterilisierte Grundlösungen von Verbindungen I und einem Nocardicin-Antibiotikum hergestellt, die 4,8mal so konzentriert sind wie die zu testenden Lösungen. Aliquote Teile des Kulturmediums (50 ul)wurden in alle 12 (1-12) x 8 (A-H) Löcher der Mikrotiter-Platte gegeben, mit Ausnahme des Loches 12H. Jeweils 50 µl der Peptid-Lösung wurden dann in jedes Loch der zwölften Reihe gegeben und 100 µl in das Loch 12H. Die peptidhaltigen Lösungen wurden dann innerhalb der Reihen A-H dadurch verdünnt, dass man jeweils 50 µl aus der Reihe 12 in die Reihe 11 übertrug, gut vermischte, und wieder jeweils 50 µl in die Reihe 10 übertrug und dieses Prozedere bis zur Reihe 2 wiederholte, so dass die Reihe 1 ausgelassen wurde. Dann wurden je 50 µl einer Lösung eines Nocardicin-Antibiotikums in jedes Loch der Reihe H gegeben und ebenfalls in der vorstehend beschriebenen Weise verdünnt innerhalb der Reihen 1-12, wobei das letzte Loch in jeder Reihe wiederum ausgelassen wurde. Nachdem die Volumina überall durch Zusatz von 50 ul Nährflüssigkeit auf 100 µl gebracht wurden, wurden jeweils 20 µl einer 1/1000 Verdünnung einer über Nacht angesetzten Kultur eines Testorganismus zugesetzt. Durch Schütteln wurde für eine gleichmässige Verteilung gesorgt, woraufhin die Platten mit Klebstreifen verschlossen wurden. Die minimalen Hemmkonzentrationen wurden als diejenigen minimalen Konzentrationen bestimmt, die nach 18-stündiger Inkubation der Kulturen eine sichtbare Trübung verhinderten. Die Ergebnisse mit (1R)-1-(L-Norvalylamino)-ethylphosphonsäure und Nocardicin D sind in der Tabelle V zusammengestellt.

Setting [3] is: P. vulgaris Stamm 505030, substance alone.
Where [4] appears, read: P. vulgaris Stamm 505031, substance alone.
[5] abbreviates: Tabelle IV, P. vulgaris (strain not named), substance alone.
The mark [6] stands for this setting: NCTC2099, Stamm NCTC 2099, substance alone.
Setting [7] is: NCTC2100, Stamm NCTC 2100, substance alone.
Setting [8] is: Stamm NC1B 8295, substance alone.
Setting [9] is: Tabelle IV, Ps. aeruginosa (strain not named), substance alone.
The mark [10] stands for this setting: ATCC14756, S. marcescens Stamm ATCC 14756, substance alone.
Setting [11] is: S. marcescens Stamm 542007, substance alone.
Setting [12] is: S. marcescens Stamm 542010, substance alone.
The mark [13] stands for this setting: S. marcescens Stamm 542012, substance alone.
Setting [14] is: S. marcescens Stamm 542017, substance alone.
[15] abbreviates: Tabelle IV, S. marcescens (strain not named), substance alone.
Setting [16] is: P. mirabilis Stamm 502010, substance alone.
Where [17] appears, read: P. mirabilis Stamm 502012, substance alone.
Setting [18] is: P. mirabilis Stamm 502015, substance alone.
[19] abbreviates: P. mirabilis Stamm 502038, substance alone.

On to `N[C@H](CCOc1ccc(/C(=N/O)C(=O)N[C@H]2CN([C@@H](C(=O)O)c3ccc(O)cc3)C2=O)cc1)C(=O)O` [Nocardicin A], for which the MIC is 4 µg/mL (≈ 7.99 µM) with Proteus vulgaris (setting [3]); 32 µg/mL (≈ 63.9 µM) with Proteus vulgaris (setting [4]); 64 µg/mL (≈ 128 µM) with Proteus vulgaris (setting [5]); 8 µg/mL (≈ 16 µM) with P. morganii; 16 µg/mL (≈ 32 µM) with Pseudomonas aeruginosa [1] (setting [6]); 32 µg/mL (≈ 63.9 µM) with Pseudomonas aeruginosa [1] (setting [7]). The MIC with Pseudomonas aeruginosa [1] (Stamm 511004, substance alone) was found to be 32 µg/mL (≈ 63.9 µM); with Pseudomonas aeruginosa [1] (Stamm 511005, substance alone), 4 µg/mL (≈ 7.99 µM); in the experiment on Pseudomonas aeruginosa [1] (Stamm 511007, substance alone), 16 µg/mL (≈ 32 µM); in the experiment with Pseudomonas aeruginosa [1] (Stamm 511012, substance alone), 32 µg/mL (≈ 63.9 µM); with Pseudomonas aeruginosa [1] (Stamm 511015, substance alone), 16 µg/mL (≈ 32 µM); with Pseudomonas aeruginosa [1] (Stamm 511016, substance alone), 64 µg/mL (≈ 128 µM). The MIC was 64 µg/mL (≈ 128 µM) in the experiment with Pseudomonas aeruginosa [1] (Stamm 511019, substance alone); 181 µg/mL (≈ 362 µM) in the experiment on Pseudomonas aeruginosa [1] (Stamm 511026, substance alone); 8 µg/mL (≈ 16 µM) in the experiment with Pseudomonas aeruginosa [1] (Stamm 511027, substance alone); 16 µg/mL (≈ 32 µM) in the experiment with Pseudomonas aeruginosa [1] (Stamm 511028, substance alone); 256 µg/mL (≈ 512 µM) in the experiment with Pseudomonas aeruginosa [1] (Stamm 511029, substance alone); 16 µg/mL (≈ 32 µM) in the experiment with Pseudomonas aeruginosa [1] (Stamm 511030, substance alone). In addition, the minimum inhibitory concentration (MIC) in the experiment with Pseudomonas aeruginosa [1] (Stamm 511032, substance alone) was 32 µg/mL (≈ 63.9 µM); in the experiment with Pseudomonas aeruginosa [1] (Stamm 511033, substance alone), 32 µg/mL (≈ 63.9 µM); in the experiment on Pseudomonas aeruginosa [1] (Stamm 511036, substance alone) it was 16 µg/mL (≈ 32 µM); in the experiment with Pseudomonas aeruginosa [1] (Stamm 511038, substance alone), 256 µg/mL (≈ 512 µM); in the experiment on Pseudomonas aeruginosa [1] (Stamm 511041, substance alone) it was 32 µg/mL (≈ 63.9 µM); in the experiment with Pseudomonas aeruginosa [1] (setting [8]) it was greater than 256 µg/mL. For the same molecule, the MIC in the experiment with Pseudomonas aeruginosa [1] (setting [9]) was determined as 8 µg/mL (≈ 16 µM); in the experiment with P. rettgeri it was 8 µg/mL (≈ 16 µM); in the experiment on Serratia marcescens (setting [10]), 8 µg/mL (≈ 16 µM); in the experiment with Serratia marcescens (setting [11]) it was 11.3 µg/mL (≈ 22.6 µM); in the experiment with Serratia marcescens (setting [12]) it was 11.3 µg/mL (≈ 22.6 µM); in the experiment on Serratia marcescens (setting [13]) it was 8 µg/mL (≈ 16 µM). The MIC worked out at 16 µg/mL (≈ 32 µM) with Serratia marcescens (setting [14]); 16 µg/mL (≈ 32 µM) in the experiment with Serratia marcescens (setting [15]); 8 µg/mL (≈ 16 µM) with P. mirabilis (setting [16]); 8 µg/mL (≈ 16 µM) in the experiment on P. mirabilis (setting [17]); 4 µg/mL (≈ 7.99 µM) in the experiment on P. mirabilis (setting [18]); 32 µg/mL (≈ 63.9 µM) with P. mirabilis (setting [19]). The ED50 with Ps. aeruginosa (Ps. aeruginosa 143724, s.c. 3 x (1, 3, 5 h after i.p. infection), substance alone, read-out: CD50 (the source's name)) is greater than 50 mg/kg; in the experiment with Ps. aeruginosa (Ps. aeruginosa 143811, s.c. 3 x (1, 3, 5 h after i.p. infection), substance alone, read-out: CD50 (the source's name)), greater than 50 mg/kg; in the experiment with Ps. aeruginosa (Ps. aeruginosa BA, s.c. 3 x (1, 3, 5 h after i.p. infection), substance alone, read-out: CD50 (the source's name)), 43 mg/kg; in the experiment with Ps. aeruginosa (Ps. aeruginosa M 7801, s.c. 3 x (1, 3, 5 h after i.p. infection), substance alone, read-out: CD50 (the source's name)), greater than 50 mg/kg.
In the case of `CCC[C@H](N)C(=O)NCP(=O)(O)O` [1-(L-Norvalylamino)-methylphosphonsäure], the figures for the minimum inhibitory concentration (MIC) in the experiment with Proteus vulgaris (setting [5]), in the experiment with Pseudomonas aeruginosa [1] (setting [9]) and in the experiment with Serratia marcescens (setting [15]) were 45.2 µg/mL (≈ 215 µM), greater than 128 µg/mL and 4 µg/mL (≈ 19 µM), respectively.
For `CCC[C@H](N)C(=O)N[C@@H](C)P(=O)(O)O` [(1R)-1-(L-Norvalylamino)-ethylphosphonsäure], the MIC in the experiment with Proteus vulgaris (setting [3]) is 5.7 µg/mL (≈ 25.4 µM); in the experiment with Proteus vulgaris (setting [4]), 8 µg/mL (≈ 35.7 µM); with P. morganii, 64 µg/mL (≈ 285 µM); with Pseudomonas aeruginosa [1] (setting [6]), 256 µg/mL (≈ 1140 µM); in the experiment on Pseudomonas aeruginosa [1] (setting [7]), greater than 256 µg/mL; in the experiment on Pseudomonas aeruginosa [1] (Stamm 511004, substance alone) it was greater than 256 µg/mL. For the same molecule, the MIC in the experiment with Pseudomonas aeruginosa [1] (Stamm 511005, substance alone) is 4 µg/mL (≈ 17.8 µM); in the experiment with Pseudomonas aeruginosa [1] (Stamm 511007, substance alone) it was greater than 256 µg/mL; in the experiment with Pseudomonas aeruginosa [1] (Stamm 511012, substance alone), greater than 256 µg/mL; in the experiment on Pseudomonas aeruginosa [1] (Stamm 511015, substance alone) it was 128 µg/mL (≈ 571 µM); in the experiment on Pseudomonas aeruginosa [1] (Stamm 511016, substance alone), 32 µg/mL (≈ 143 µM); in the experiment with Pseudomonas aeruginosa [1] (Stamm 511019, substance alone) it was greater than 256 µg/mL. Moreover, the MIC in the experiment on Pseudomonas aeruginosa [1] (Stamm 511026, substance alone) was greater than 256 µg/mL; in the experiment with Pseudomonas aeruginosa [1] (Stamm 511027, substance alone), 45 µg/mL (≈ 201 µM); with Pseudomonas aeruginosa [1] (Stamm 511028, substance alone), greater than 256 µg/mL; in the experiment on Pseudomonas aeruginosa [1] (Stamm 511029, substance alone) it was greater than 256 µg/mL; with Pseudomonas aeruginosa [1] (Stamm 511030, substance alone), 256 µg/mL (≈ 1140 µM); in the experiment on Pseudomonas aeruginosa [1] (Stamm 511032, substance alone), 256 µg/mL (≈ 1140 µM). For the same molecule, the MIC with Pseudomonas aeruginosa [1] (Stamm 511033, substance alone) amounted to 256 µg/mL (≈ 1140 µM); with Pseudomonas aeruginosa [1] (Stamm 511036, substance alone), 256 µg/mL (≈ 1140 µM); with Pseudomonas aeruginosa [1] (Stamm 511038, substance alone), 256 µg/mL (≈ 1140 µM); in the experiment with Pseudomonas aeruginosa [1] (Stamm 511041, substance alone), 256 µg/mL (≈ 1140 µM); in the experiment on Pseudomonas aeruginosa [1] (setting [8]), 64 µg/mL (≈ 285 µM); in the experiment on P. rettgeri, 4 µg/mL (≈ 17.8 µM). Besides, the MIC in the experiment on Serratia marcescens (setting [10]) is 1 µg/mL (≈ 4.46 µM); in the experiment with Serratia marcescens (setting [11]), 1 µg/mL (≈ 4.46 µM); in the experiment with Serratia marcescens (setting [12]), 1 µg/mL (≈ 4.46 µM); in the experiment on Serratia marcescens (setting [13]), 1 µg/mL (≈ 4.46 µM); with Serratia marcescens (setting [14]), 1 µg/mL (≈ 4.46 µM); in the experiment with Pseudomonas aeruginosa [2] (Stamm 511019, substance alone), greater than 256 µg/mL. The MIC is 64 µg/mL in the experiment on Pseudomonas aeruginosa [2] (Stamm 511027, substance alone); 256 µg/mL in the experiment with Pseudomonas aeruginosa [2] (Stamm 511030, substance alone); 22.6 µg/mL (≈ 101 µM) in the experiment on P. mirabilis (setting [16]); 22.6 µg/mL (≈ 101 µM) in the experiment on P. mirabilis (setting [17]); 22.6 µg/mL (≈ 101 µM) with P. mirabilis (setting [18]); 22.6 µg/mL (≈ 101 µM) with P. mirabilis (setting [19]). Also, the ED50 in the experiment with Ps. aeruginosa (read-out: CD50, Ps. aeruginosa 143724, s.c. 3 x (1, 3, 5 h after i.p. infection), substance alone) was greater than 200 mg/kg; with Ps. aeruginosa (read-out: CD50, Ps. aeruginosa 143811, s.c. 3 x (1, 3, 5 h after i.p. infection), substance alone), greater than 200 mg/kg; in the experiment on Ps. aeruginosa (read-out: CD50, Ps. aeruginosa BA, s.c. 3 x (1, 3, 5 h after i.p. infection), substance alone), greater than 200 mg/kg; in the experiment with Ps. aeruginosa (read-out: CD50, Ps. aeruginosa M 7801, s.c. 3 x (1, 3, 5 h after i.p. infection), substance alone), 135 mg/kg.
Turning to `N[C@H](CCOc1ccc(C(=O)C(=O)N[C@H]2CN([C@@H](C(=O)O)c3ccc(O)cc3)C2=O)cc1)C(=O)O` [Nocardicin D], the M.I.C. is greater than 512 µg/mL in the experiment on Pseudomonas aeruginosa [2] (Stamm 511019, substance alone); 512 µg/mL in the experiment with Pseudomonas aeruginosa [2] (Stamm 511027, substance alone); 128 µg/mL in the experiment on Pseudomonas aeruginosa [2] (Stamm 511030, substance alone).
